Series [1] is described as follows: Compound cytotoxicity (CC50) counter screen in Vero E6 cells. Format: cell-based. To be noted: African green monkey, read-out: CC50 (general cytotoxic effects in Vero E6 cells). Here is the method: Compound cytotoxicity (CC50) is assessed in a BSL-2 counter screen as follows: Host cells in media are added in 25 μl aliquots (4000 cells/well) to each well of assay ready plates prepared with test compounds as above. Cells only (100% viability) and cells treated with hyamine at 100 μM final concentration (0% viability) serve as the high and low signal controls, respectively, for cytotoxic effect in the assay. DMSO is maintained at a constant concentration for all wells (0.3%) as dictated by the dilution factor of stock test compound concentrations. After incubating plates at 37° C./5% CO2 and 90% humidity for 72 hours, 30 μl Cell Titer-Glo (Promega) is added to each well. Luminescence is read using a BMG PHERAstar plate reader following incubation at room temperature for 10 minutes to measure cell viability.

The test system of series [2] is SARS-CoV-2. Briefly: microbe, parasite or virus in culture. Format: cell-based. To be noted: Severe acute respiratory syndrome coronavirus 2, A549, 48 h; read-out: IC50 for inhibition of SARS CoV-2 mediated cell killing.
Series [3] is described as follows: in vitro. To be noted: human.
The test system of series [4] is SARS CoV-2 (USA_WA1/2020). Briefly: SARS CoV-2 CPE assay for antiviral activity (Vero E6 host cells, Cell Titer-Glo). It is filed as cell-based. To be noted: read-out: IC50 for inhibition of SARS CoV-2 mediated cell killing.
Where [5] appears, read: Vero C1008, Vero E6 cells, 10-point dose response, high concentration 15 μM, 72 hours.

The text below walks through data of patent publication US20220184054A1, “ANTI-VIRAL ACTIVITY OF VPS34 INHIBITORS” (priority 2020, published 2022).

Read-outs that look alike come from different tables or passages of the source.

For the compound `N#Cc1cc2c(-c3cc(-c4ccccc4C(F)(F)F)[nH]c(=O)c3)ccnc2[nH]1` [Compound 2], the CC50 at 72 h in series [1] is > 10000 nM. Besides, the IC50 in series [2] came to 1570 nM; in series [4] (setting [5]), 3010 nM. For the same compound, the CC50 in series [3] is > 10000 nM.
Turning to `O=c1cc(-c2ccnc3[nH]c(C4CC4)cc23)cc(N2CCCCC2C(F)(F)F)[nH]1` (stereo not shown) [Compound 3], the CC50 at 72 h in series [1] was 2830 nM. The IC50 in series [2] amounted to 29 nM; in series [4] (setting [5]), 114 nM. For the same compound, in series [3], the CC50 came to 482 nM.
In the case of `O=c1cc(-c2ccnc3[nH]ncc23)cc(N2CCCCC2C(F)(F)F)[nH]1` (stereo not shown) [Compound 1], the CC50 at 72 h in series [1] was 15000 nM. Further, the IC50 was determined as 510 nM in series [2] and 470 nM in series [4] (setting [5]). The compound also had a CC50 in series [3] of 8000 nM.
For the compound `Cc1ccc(-c2cc3c(-c4cc(N5CCOCC5C(F)(F)F)[nH]c(=O)c4)ccnc3[nH]2)s1` (stereo not shown) [Compound 4], in series [1], the CC50 at 72 h stood at 1430 nM. Moreover, the IC50 in series [2] worked out at 158 nM; in series [4] (Vero C1008, 72 h), 1040 nM. For the same compound, the CC50 in series [3] amounted to 411 nM.

A word on the IC50: it is the concentration that inhibits the measured activity by half.
